Measured values published in patent publication US20160030369A1, “FKBP52 TARGETING AGENT PHARMACEUTICAL COMPOSITIONS” (THE UNITED STATES OF AMERICA AS REPRESENTED BY THE …, priority 2013, published 2016).
Converted amounts (≈) assume the structure as drawn. Like-named read-outs stand apart in the source and are kept apart here.

Tests used:
[1] = Solubility of MJC13 in various solvents, shake-flask method; assay type: physicochemical; conditions: DMSO, organic solvent or mixture
[2] = Pharmacokinetics of MJC13 (Formulation PT4) after IV bolus in rats, three-compartment model; assay type: in vivo, Sprague-Dawley rats; conditions: single IV bolus 2 mg/kg, Formulation PT4, n = 8; for half-life / Vd: iv, 2 mg/kg
Method: To further determine the fate of MJC13 in live animals and verify the applicability of the developed LC/MS/MS assay and formulations, pharmacokinetic studies were performed in rats. The animal experiment and protocol were reviewed and approved by the Institutional Animal Care and Use Committee at Texas Southern University. The jugular veins of eight male adult Sprague-Dawley rats (358˜377 g) were cannulated under anesthesia using a cocktail of ketamine:acetopromazine:xylazine (50:3.3:3.3 mg/kg) the day before the study. On the day of study, Formulation PT4, which includes PEG 400 and Tween 80 (1:1, v/v) with a MJC13 concentration of 7.5 mg/mL, was diluted to 1 mg/mL by normal saline. Blood and urine samples were collected from each rat right before dosing. Each rat was given a 2 mg/kg intravenous (IV) bolus dose of MJC13. Blood sample collecting tubes were heparinized and dried. In order to avoid any possible contamination, after dosing for each rat, the foremost part of each tubing associated with the needle for dosing was cut off, and then 0.5 mL of normal saline containing 20 U/mL heparin was injected to flush the tubing. Blood samples (250 μL; n=8) were collected at 5, 10, 15, 30 minutes, 1, 2, 4, 6, 8, 12, 24, 48 and 72 hours post injection, respectively. The blood samples were centrifuged at 13,000 rpm for 10 minutes and the supernatants (plasma) were obtained and immediately stored at −80° C. until analysis. Urine samples (n=4) were collected periodically, including 0-2, 2-4, 4-8, 8-12, 12-24, 24-48 and 48-72 hours post injection. After measurement of the overall urinary volume of each interval, urine samples were immediately stored at −80° C. until analysis. Within 48 hours, those plasma and urine samples were analyzed by the LC/MS/MS method of Example 1 to obtain MJC13 concentrations. After analysis, the plasma concentrations and cumulative urinary excretions of MJC13 were presented as the mean value with standard deviation (SD) and plotted against time by SigmaPlot 12.3 (Systat Software, San Jose, Calif.). (FIGS. 5, 6, 7A, and 7B).
The intravenous drug plasma concentration-time data were pharmacokinetically analyzed separately for each rat by compartmental modeling using the microcomputer-based nonlinear regression program, WINNONLIN software 5.2.1 (Pharsight Corporation, Mountain View, Calif.). A three-compartment model was provided which best described the fit for the IV bolus administration based on the appearance of the observed and predicted concentrations, the reduction in the sums of squares, and the Akaike's information criterion (Yamaoka et al., J. Pharmacokinet Biopharm., 6(2): 165-75 (1978)). The three-compartment model is described by Eq. 5:
Ct=A·e^−αt+B·e^−βt+C·e^−γt, Eq. 5
where A, B and C are the coefficients, α is the α-phase hybrid rate constant, β is β-phase hybrid rate constant, γ is the γ-phase hybrid rate constant, and Ct is the plasma concentration of MJC13 at time t. The pharmacokinetic parameters thus derived were the systemic or plasma clearance (Cl), the volume of distribution (Vd), the total area under the plasma drug concentration-time curve (AUC), and half-lives (T1/2).

[3] = Rat plasma protein binding by ultrafiltration; assay type: in vitro ADME; conditions: 37° C.
Method: In vitro rat plasma samples of MJC13 were prepared by diluting the stock solution with acetonitrile and spiking in rat plasma at five different concentrations: 100, 500, 1000, 2000 and 5000 ng/mL to approximate the plasma concentrations of MJC13 in rats after 2 mg/kg intravenous bolus dosing. The plasma was incubated at 37° C. for 1 hours before being transferred to Amicon Ultra-0.5 mL Centrifugal Filters (EMD Millipore Corporation, Billerica, Mass.) for ultrafiltration at 3000 rpm for 10 minutes. Filtrate and nonfiltrate concentrations were determined by LC-MS/MS. The fraction unbound, fu, was determined as Eq. 4:
where Cu is the unbound concentration and Ct is the total concentration.

[4] = Solubility of MJC13 in 50% (w/v) HP-β-CD aqueous solution; assay type: physicochemical
Method: An excess amount of MJC13 was added to a sealed glass vial (2 ml) containing saturated (50% w/v) 2-hydroxypropyl-β-cyclodextrin (HP-β-CD) aqueous solution. The vial was shaken at room temperature for 72 hours. Thereafter, the solution was centrifuged, filtered through a 0.2 μm membrane and analyzed for MJC13 by the LC/MS/MS method of Example 1. Experiments were conducted in triplicate. […] It is believed that the resulting pharmaceutical composition has improved biocompatibility because it lacks TWEEN 80 (polysorbate 80).

[5] = Freeze-thaw stability of MJC13 in rat plasma and rat urine; assay type: in vitro ADME
Method: Freeze-thaw stability of MJC13 in rat plasma and rat urine were evaluated by analyzing QC samples at low, medium, and high concentrations. Plasma samples that were exposed for three cycles of freezing (at −20° C.) and thawing (at room temperature) were compared with freshly prepared samples at the same concentrations.
(§1) The stability of MJC13 in rat urine was conducted in the same fashion as in rat plasma.

[6] = system: AR; conditions: cellular models of prostate cancer, micromolar concentrations; cited from earlier work
[7] = Solubility of MJC13 in various solvents, shake-flask method; assay type: physicochemical; conditions: thermodynamic from solid
Method: The solubility of MJC13 was evalulated. Because there is no ionizable functional group on the molecular structure, the solubility of MJC13 was expected to be low in water and barely affected by pH. In this work, the solubility of MJC13 in water, ethanol, propylene glycol, polyethylene glycol 400 (PEG 400), polysorbate 80 (Tween 80), olive oil, peanut oil, soybean oil, CAPTEX 200 and LABRAFAC Lipophile WL1349 was determined by a shake-flask method. Briefly, an excess amount of MJC13 was added to each capped glass bottle containing the selected vehicle and mixed for 48 hours at room temperature using a reciprocating shaker. The samples were centrifuged at 3000 rpm for 10 minutes and were subsequently filtered through a 0.22 μm ultrafiltration unit. The filtrates were analyzed by LC/MS/MS to determine the concentration of drug dissolved. The experiments were conducted in triplicate.

[8] = Processed sample (autosampler) stability of MJC13 rat plasma and urine extracts; assay type: physicochemical; conditions: for average recoveries: acetonitrile with IS; for recoveries: acetonitrile without IS
Method: Processed sample stability (on-instrument or autosampler stability) of MJC13 rat plasma extracts and rat urine extracts were evaluated by analyzing QC samples at low, medium, and high concentrations. Two sets of plasma samples were extracted with acetonitrile with and without IS, respectively. The plasma extracts were kept in the autosampler for 2, 4, or 6 hours, before injecting into the LC-MS/MS. All of those samples were compared with freshly prepared samples at the same concentrations.

[9] = Lipophilicity (log P) between water and 1-octanol, shake-flask; assay type: physicochemical; conditions: 1-octanol/water, room temperature, read-out: experimental log P
Method: The lipophilicity of MJC13 was determined as the logarithm of partition coefficient (log P) of the solute between water and 1-octanol. Equal volumes of two-phase solution (water and 1-octanol) was mixed well in a capped glass bottle and then placed in a shaker for 24 hours to make sure that saturation equilibrium had been achieved. MJC13 (1 mL) dissolved in the two-phase solution was added the bottle. Then, MJC13 was partitioned between aqueous and 1-octanol for 72 hours at room temperature using the shake-flask method. The mixture from the bottle was centrifuged at 3000 rpm for 10 minutes and subsequently filtered through a 0.22 μm ultrafiltration unit, and then moved to a separatory funnel for phase separation. The aqueous and 1-octanol phases were analyzed by LC-MS/MS to determine the concentration of drug dissolved. Experiments were conducted in triplicate. The log P was calculated according to Eq. 3: […]
where Co and Cw represent the concentrations of MJC13 in 1-octanol and aqueous phase, respectively.

[10] = Short-term (bench-top) and frozen storage stability of MJC13 in rat plasma and rat urine; assay type: in vitro ADME
Method: Short-term stability (bench-top stability) of MJC13 in rat plasma and rat urine were evaluated by analyzing triplicates of QC samples at low, medium, and high concentrations. Plasma samples were removed from frozen storage (−20° C.) and remained on the bench-top for 2, 4, or 6 hours. All of those samples were compared with freshly prepared samples at the same concentrations. […] Another set of plasma samples were stored at −80° C. for 7 days.
as §1

[11] = rat plasma extract, autosampler 2 hours
[12] = rat plasma extract, autosampler 4 hours
[13] = rat plasma extract, autosampler 6 hours
[14] = rat urine extract, autosampler 2 hours
[15] = rat urine extract, autosampler 4 hours
[16] = rat urine extract, autosampler 6 hours

solubility [1]: > 100 mg/mL
clearance ([2]; male, Sprague-Dawley, plasma, rat, read-out: Cl (total body clearance)): 6.04 ± 2.43 mL/min/kg
half-life ([2]; male, Sprague-Dawley, rat, plasma, rat plasma, read-out: T1/2α (elimination half-life of α-phase)): 5.64 ± 1.3 min
half-life ([2]; male, Sprague-Dawley, rat, plasma, rat plasma, read-out: T1/2β (elimination half-life of β-phase)): 126 ± 19 min
half-life ([2]; male, Sprague-Dawley, rat, plasma, rat plasma, read-out: T1/2γ (elimination half-life of γ-phase)): 1940 ± 727 min
Vd ([2]; male, Sprague-Dawley, rat, plasma, rat, read-out: V1 (volume of distribution of central compartment)): 0.744 ± 0.074 L/kg
Vd ([2]; male, Sprague-Dawley, rat, plasma, rat, read-out: Vss (volume of distribution at steady state)): 10.8 ± 2.13 L/kg
AUC(0-inf) ([2]; male, Sprague-Dawley, rat plasma, read-out: AUC0-∞ (area under curve from time zero to infinity) (converted)): 6640 ng·h/mL
Cmax ([2]; male, Sprague-Dawley, rat plasma, read-out: Cmax (maximum concentration)): 2710 ± 251 ng/mL
A (coefficient of α-phase) ([2]; rat plasma): 2124 ± 222 ng/mL
B (coefficient of β-phase) ([2]; rat plasma): >483 ± 126 ng/mL
C (coefficient of γ-phase) ([2]; rat plasma): 101 ± 36 ng/mL
V2 (volume of distribution of first peripheral compartment) ([2]; rat): 2038 ± 646 mL/kg
V3 (volume of distribution of second peripheral compartment) ([2]; rat): 8068 ± 1600 mL/kg
fraction bound at 1 h, 100 ng/mL ([3]; 100 ng/mL): 0.981 ± 0.015
fraction bound at 1 h, 500 ng/mL ([3]; 500 ng/mL): 0.976 ± 0.027
fraction bound at 1 h, 1000 ng/mL ([3]; 1000 ng/mL): 0.996 ± 0.017
fraction bound at 1 h, 2000 ng/mL ([3]; 2000 ng/mL): 0.972 ± 0.028
fraction bound at 1 h, 5000 ng/mL ([3]; 5000 ng/mL): 0.979 ± 0.024
solubility at 72 h ([4]; 50% (w/v) HP-β-CD aqueous solution, aqueous with cosolvent or surfactant or cyclodextrin, thermodynamic from solid, room temperature, 72 hours): 2600 ± 300 µg/mL (≈ 9.55 mM)
increase of solubility compared to MJC13 itself in pure water ([4]; 50% (w/v) HP-β-CD solution vs pure water): 10,000 fold
average MJC13 amount remaining ([5]; rat plasma, three freeze (−20° C.)-thaw (room temperature) cycles): 96.7±2.0%
average MJC13 amount remaining ([5]; rat urine, three freeze-thaw cycles): 97.5±2.4%
solubility at 48 h ([7]; Captex 200, oil or lipid, Captex ® 200, room temperature, read-out: Solubility): 31.9 ± 1.6 mg/mL (≈ 117 mM)
solubility at 48 h ([7]; Labrafac Lipophile WL1349, oil or lipid, Labrafac ™ Lipophile WL1349, room temperature, read-out: Solubility): 24 ± 1.1 mg/mL (≈ 88.2 mM)
solubility at 48 h ([7]; PEG 400, organic solvent or mixture, PEG 400, room temperature, read-out: Solubility): 23 ± 0.7 mg/mL (≈ 84.5 mM)
solubility at 48 h ([7]; ethanol, organic solvent or mixture, Ethanol, room temperature, read-out: Solubility): 35.6 ± 1.8 mg/mL (≈ 131 mM)
solubility at 48 h ([7]; olive oil, oil or lipid, Olive oil, room temperature, read-out: Solubility): 16.2 ± 0.3 mg/mL (≈ 59.5 mM)
solubility at 48 h ([7]; peanut oil, oil or lipid, Peanut oil, room temperature, read-out: Solubility): 15.6 ± 0.4 mg/mL (≈ 57.3 mM)
solubility at 48 h ([7]; polysorbate 80 (Tween 80), organic solvent or mixture, Polysorbate 80, room temperature, read-out: Solubility): 28.2 ± 0.7 mg/mL (≈ 104 mM)
solubility at 48 h ([7]; propylene glycol, organic solvent or mixture, Propylene glycol, room temperature, read-out: Solubility): 5.7 ± 0.2 mg/mL (≈ 20.9 mM)
solubility at 48 h ([7]; soybean oil, oil or lipid, Soybean oil, room temperature, read-out: Solubility): 17.3 ± 0.5 mg/mL (≈ 63.6 mM)
solubility at 48 h ([7]; water, Water, room temperature, read-out: Solubility): 0.00028 mg/mL (≈ 0.00103 mM)
solubility at 48 h ([7]; water, water, room temperature, read-out: water solubility): 0.00028 mg/mL (≈ 0.00103 mM)
average recoveries [8, 11]: 97.6±1.3%
average recoveries [8, 12]: 98.3±1.5%
average recoveries [8, 13]: 96.7±0.7%
recoveries [8, 11]: 96.1±1.3%
recoveries [8, 12]: 97.6±1.1%
recoveries [8, 13]: 97.7±2.4%
average recoveries [8, 14]: 95.8±3.2%
average recoveries [8, 15]: 98.6±2.5%
average recoveries [8, 16]: 97.9±1.7%
recoveries [8, 14]: 97.4±2.2%
recoveries [8, 15]: 97.1±1.9%
recoveries [8, 16]: 96.4±3.3%
logP at 72 h [9]: 6.49 ± 0.37
average MJC13 amount remaining ([10]; rat plasma, bench-top, 2 hours): 98.6±1.7%
average MJC13 amount remaining ([10]; rat plasma, bench-top, 4 hours): 97.6±2.0%
average MJC13 amount remaining ([10]; rat plasma, bench-top, 6 hours): 97.4±1.2%
average recoveries ([10]; rat plasma, stored at −80° C. for 7 days): 96.4±1.4%
average MJC13 amount remaining ([10]; rat urine, bench-top, 2 hours): 97.9±2.5%
average MJC13 amount remaining ([10]; rat urine, bench-top, 4 hours): 99.1±1.9%
average MJC13 amount remaining ([10]; rat urine, bench-top, 6 hours): 96.7±2.8%
average MJC13 amount remaining ([10]; rat urine, stored at −80° C. for 7 days): 95.9±2.7%
SMILES: O=C(Nc1cccc(Cl)c1Cl)C1CCCCC1 [MJC13]
block of AR-dependent gene expression [6]: effectively block AR-dependent gene expression
